Reference: the NIST ThermoML archive (doi:10.1021/je900387e)
Numbers after ± are expanded uncertainties.

Assay: xn = mol fraction of the nth substance listed
Settings: Liquid, Pycnometric method

CCCCCl [1-chlorobutane] + O=C=O
Settings	mass density [kg/m3]
313.1 K, 10970 kPa, x1 = 0.0744	828 ± 4
313.1 K, 11030 kPa, x1 = 0.0243	763 ± 4
313.1 K, 11220 kPa, x1 = 0.0483	800 ± 4
313.1 K, 11230 kPa, x1 = 0.0981	855 ± 4
313.1 K, 11350 kPa, x1 = 0.0744	833 ± 4
313.1 K, 11500 kPa, x1 = 0.1488	870 ± 4
313.1 K, 11510 kPa, x1 = 0.0483	806 ± 4
313.1 K, 11780 kPa, x1 = 0.0744	839 ± 4
313.1 K, 11810 kPa, x1 = 0.0483	811 ± 4
313.1 K, 11820 kPa, x1 = 0.0981	862 ± 4
313.1 K, 12110 kPa, x1 = 0.0483	816 ± 4
313.1 K, 12170 kPa, x1 = 0.1488	875 ± 4
313.1 K, 12220 kPa, x1 = 0.0744	844 ± 4
313.1 K, 12430 kPa, x1 = 0.0744	847 ± 4
313.1 K, 12440 kPa, x1 = 0.0981	869 ± 4
313.1 K, 12540 kPa, x1 = 0.1488	878 ± 4
313.1 K, 12780 kPa, x1 = 0.0981	872 ± 4
313.1 K, 12890 kPa, x1 = 0.1488	880 ± 4
313.1 K, 13000 kPa, x1 = 0.0981	874 ± 4
313.1 K, 13240 kPa, x1 = 0.1488	883 ± 4
313.1 K, 13660 kPa, x1 = 0.1488	885 ± 4
313.1 K, 14020 kPa, x1 = 0.1488	888 ± 4
313.1 K, 14460 kPa, x1 = 0.1488	890 ± 4
313.1 K, 14830 kPa, x1 = 0.1488	893 ± 4
314.5 K, 8320 kPa, x1 = 0.0243	495 ± 4
314.5 K, 8330 kPa, x1 = 0.0243	501 ± 4
314.5 K, 8360 kPa, x1 = 0.0243	510 ± 4
314.5 K, 8390 kPa, x1 = 0.0243	522 ± 4
314.5 K, 8430 kPa, x1 = 0.0243	531 ± 4
314.5 K, 8460 kPa, x1 = 0.0243	541 ± 4
314.5 K, 8490 kPa, x1 = 0.0243	552 ± 4
314.5 K, 8530 kPa, x1 = 0.0243	562 ± 4
314.5 K, 8590 kPa, x1 = 0.0243	575 ± 4
314.5 K, 8650 kPa, x1 = 0.0243	588 ± 4
314.5 K, 8720 kPa, x1 = 0.0243	602 ± 4
314.5 K, 8820 kPa, x1 = 0.0243	617 ± 4
314.5 K, 8930 kPa, x1 = 0.0243	632 ± 4
314.5 K, 9080 kPa, x1 = 0.0243	648 ± 4
314.5 K, 9270 kPa, x1 = 0.0243	664 ± 4
314.5 K, 9480 kPa, x1 = 0.0243	680 ± 4
314.5 K, 9790 kPa, x1 = 0.0243	698 ± 4
314.5 K, 10150 kPa, x1 = 0.0243	715 ± 4
314.5 K, 10480 kPa, x1 = 0.0243	729 ± 4
314.5 K, 10730 kPa, x1 = 0.0243	738 ± 4
314.5 K, 11030 kPa, x1 = 0.0243	748 ± 4
314.5 K, 11370 kPa, x1 = 0.0243	758 ± 4
314.5 K, 11740 kPa, x1 = 0.0243	767 ± 4
317.9 K, 7340 kPa, x1 = 0.1488	805 ± 4
317.9 K, 7730 kPa, x1 = 0.0981	761 ± 4
317.9 K, 7740 kPa, x1 = 0.1488	811 ± 4
317.9 K, 7900 kPa, x1 = 0.0981	766 ± 4
317.9 K, 8050 kPa, x1 = 0.0744	713 ± 4
317.9 K, 8060 kPa, x1 = 0.1488	815 ± 4
317.9 K, 8090 kPa, x1 = 0.0981	771 ± 4
317.9 K, 8230 kPa, x1 = 0.0744	720 ± 4
317.9 K, 8310 kPa, x1 = 0.0981	777 ± 4
317.9 K, 8360 kPa, x1 = 0.0744	727 ± 4
317.9 K, 8450 kPa, x1 = 0.1488	820 ± 4
317.9 K, 8520 kPa, x1 = 0.0744	733 ± 4
317.9 K, 8530 kPa, x1 = 0.0483	630 ± 4
317.9 K, 8530 kPa, x1 = 0.0981	782 ± 4
317.9 K, 8560 kPa, x1 = 0.0243	417 ± 4
317.9 K, 8590 kPa, x1 = 0.0243	423 ± 4
317.9 K, 8590 kPa, x1 = 0.0483	636 ± 4
317.9 K, 8630 kPa, x1 = 0.0243	433 ± 4
317.9 K, 8670 kPa, x1 = 0.0243	443 ± 4
317.9 K, 8690 kPa, x1 = 0.0483	646 ± 4
317.9 K, 8690 kPa, x1 = 0.0744	740 ± 4
317.9 K, 8720 kPa, x1 = 0.0243	453 ± 4
317.9 K, 8750 kPa, x1 = 0.0243	464 ± 4
317.9 K, 8770 kPa, x1 = 0.0981	787 ± 4
317.9 K, 8790 kPa, x1 = 0.0243	473 ± 4
317.9 K, 8810 kPa, x1 = 0.0483	656 ± 4
317.9 K, 8830 kPa, x1 = 0.1488	823 ± 4
317.9 K, 8850 kPa, x1 = 0.0243	484 ± 4
317.9 K, 8880 kPa, x1 = 0.0744	746 ± 4
317.9 K, 8890 kPa, x1 = 0.0243	496 ± 4
317.9 K, 8940 kPa, x1 = 0.0243	507 ± 4
317.9 K, 8940 kPa, x1 = 0.0483	667 ± 4
317.9 K, 8990 kPa, x1 = 0.0243	520 ± 4
317.9 K, 9050 kPa, x1 = 0.0981	793 ± 4
317.9 K, 9060 kPa, x1 = 0.0243	534 ± 4
317.9 K, 9080 kPa, x1 = 0.0483	678 ± 4
317.9 K, 9110 kPa, x1 = 0.0744	753 ± 4
317.9 K, 9140 kPa, x1 = 0.0243	549 ± 4
317.9 K, 9200 kPa, x1 = 0.0483	689 ± 4
317.9 K, 9230 kPa, x1 = 0.0243	565 ± 4
317.9 K, 9240 kPa, x1 = 0.1488	828 ± 4
317.9 K, 9340 kPa, x1 = 0.0243	582 ± 4
317.9 K, 9350 kPa, x1 = 0.0981	799 ± 4
317.9 K, 9360 kPa, x1 = 0.0744	760 ± 4
317.9 K, 9460 kPa, x1 = 0.0243	599 ± 4
317.9 K, 9490 kPa, x1 = 0.0483	701 ± 4
317.9 K, 9580 kPa, x1 = 0.0243	615 ± 4
317.9 K, 9600 kPa, x1 = 0.0744	766 ± 4
317.9 K, 9650 kPa, x1 = 0.0981	804 ± 4
317.9 K, 9660 kPa, x1 = 0.1488	832 ± 4
317.9 K, 9740 kPa, x1 = 0.0243	630 ± 4
317.9 K, 9770 kPa, x1 = 0.0483	713 ± 4
317.9 K, 9840 kPa, x1 = 0.0243	639 ± 4
317.9 K, 9890 kPa, x1 = 0.0744	773 ± 4
317.9 K, 9950 kPa, x1 = 0.0243	647 ± 4
317.9 K, 10010 kPa, x1 = 0.0981	810 ± 4
317.9 K, 10030 kPa, x1 = 0.0243	654 ± 4
317.9 K, 10090 kPa, x1 = 0.0483	725 ± 4
317.9 K, 10090 kPa, x1 = 0.1488	836 ± 4
317.9 K, 10220 kPa, x1 = 0.0744	780 ± 4
317.9 K, 10350 kPa, x1 = 0.0483	734 ± 4
317.9 K, 10350 kPa, x1 = 0.0981	815 ± 4
317.9 K, 10560 kPa, x1 = 0.0744	787 ± 4
317.9 K, 10580 kPa, x1 = 0.1488	841 ± 4
317.9 K, 10650 kPa, x1 = 0.0483	742 ± 4
317.9 K, 10750 kPa, x1 = 0.0981	822 ± 4
317.9 K, 10940 kPa, x1 = 0.0744	794 ± 4
317.9 K, 10970 kPa, x1 = 0.0483	752 ± 4
317.9 K, 11090 kPa, x1 = 0.1488	847 ± 4
317.9 K, 11180 kPa, x1 = 0.0981	827 ± 4
317.9 K, 11340 kPa, x1 = 0.0483	761 ± 4
317.9 K, 11370 kPa, x1 = 0.0744	802 ± 4
317.9 K, 11620 kPa, x1 = 0.1488	851 ± 4
317.9 K, 11670 kPa, x1 = 0.0981	834 ± 4
317.9 K, 11740 kPa, x1 = 0.0483	770 ± 4
317.9 K, 11860 kPa, x1 = 0.0744	810 ± 4
317.9 K, 11940 kPa, x1 = 0.1488	853 ± 4
317.9 K, 12140 kPa, x1 = 0.0981	839 ± 4
317.9 K, 12220 kPa, x1 = 0.0483	780 ± 4
317.9 K, 12240 kPa, x1 = 0.1488	856 ± 4
317.9 K, 12370 kPa, x1 = 0.0744	817 ± 4
317.9 K, 12520 kPa, x1 = 0.1488	858 ± 4
317.9 K, 12690 kPa, x1 = 0.0981	846 ± 4
317.9 K, 12740 kPa, x1 = 0.0483	790 ± 4
317.9 K, 12850 kPa, x1 = 0.1488	861 ± 4
317.9 K, 12930 kPa, x1 = 0.0744	825 ± 4
317.9 K, 13140 kPa, x1 = 0.1488	863 ± 4
317.9 K, 13250 kPa, x1 = 0.0981	852 ± 4
317.9 K, 13320 kPa, x1 = 0.0483	800 ± 4
317.9 K, 13440 kPa, x1 = 0.1488	865 ± 4
317.9 K, 13510 kPa, x1 = 0.0744	833 ± 4
317.9 K, 13620 kPa, x1 = 0.0483	805 ± 4
317.9 K, 13800 kPa, x1 = 0.1488	868 ± 4
317.9 K, 13830 kPa, x1 = 0.0981	859 ± 4
317.9 K, 13950 kPa, x1 = 0.0483	811 ± 4
317.9 K, 14180 kPa, x1 = 0.0744	841 ± 4
317.9 K, 14190 kPa, x1 = 0.1488	871 ± 4
317.9 K, 14300 kPa, x1 = 0.0483	816 ± 4
317.9 K, 14480 kPa, x1 = 0.1488	873 ± 4
317.9 K, 14530 kPa, x1 = 0.0981	865 ± 4
317.9 K, 14860 kPa, x1 = 0.1488	875 ± 4
317.9 K, 14910 kPa, x1 = 0.0744	849 ± 4
317.9 K, 15220 kPa, x1 = 0.0981	872 ± 4
322.7 K, 7900 kPa, x1 = 0.1488	782 ± 4
322.7 K, 8140 kPa, x1 = 0.1488	786 ± 4
322.7 K, 8330 kPa, x1 = 0.0981	728 ± 4
322.7 K, 8380 kPa, x1 = 0.1488	789 ± 4
322.7 K, 8510 kPa, x1 = 0.0981	734 ± 4
322.7 K, 8620 kPa, x1 = 0.0243	328 ± 4
322.7 K, 8620 kPa, x1 = 0.0981	739 ± 4
322.7 K, 8630 kPa, x1 = 0.0744	669 ± 4
322.7 K, 8670 kPa, x1 = 0.1488	794 ± 4
322.7 K, 8690 kPa, x1 = 0.0243	336 ± 4
322.7 K, 8740 kPa, x1 = 0.0744	675 ± 4
322.7 K, 8750 kPa, x1 = 0.0243	343 ± 4
322.7 K, 8780 kPa, x1 = 0.0981	744 ± 4
322.7 K, 8810 kPa, x1 = 0.0243	351 ± 4
322.7 K, 8860 kPa, x1 = 0.0243	360 ± 4
322.7 K, 8860 kPa, x1 = 0.0744	683 ± 4
322.7 K, 8920 kPa, x1 = 0.0243	368 ± 4
322.7 K, 8940 kPa, x1 = 0.0981	749 ± 4
322.7 K, 8970 kPa, x1 = 0.1488	798 ± 4
